The target of the series is recombinant human IL-2 (rhIL-2) (Homo sapiens, UniProt P60568). Kind of series: IL-2 dependent CTL-Luc cell proliferation. It is filed as cell-based. The source says:
The murine cytotoxic T lymphocytic line (CTLL) is a subclone of T cells derived from a C57bl/6 mouse. The cells require interleukin-2 (IL-2) for growth and are used to assay for its presence in conditioned media. The cells are responsive to both murine and human IL-2. CTLL cells have been transfected with the firefly luciferase gene contained in the expression vector, pPGK-puromycin-luciferase (Coombe et al, 1998, supra). The positive transfectants are cloned to produce a line with good luciferase expression and these cells are called CTL-Luc. The proliferation assays are carried out in 96-well microplates suitable for such assays (Falcon). […] The cells are counted with a Coulter Z2 Particle Counter and Size Analyzer (Coulter Electronics, England) and routinely 1.6×10^4 cells are added to microplate wells that contain either no recombinant human IL-2 (rhIL-2) (negative control) or various dilutions of rhIL-2. When the effect of PPS, or other sulfated polysaccharides is to be measured, the wells also contain various concentrations of these molecules.
The CTL-Luc cells proliferate for 24 hours at 37° C. in a humidified atmosphere, after which the luciferase activity is measured by the addition of 50 μl of luciferase substrate buffer (50 mM Tris-HCl, pH 7.8, 15 mM MgSO4, 33.3 mM DTT, 0.1 mM EDTA, 0.5 mM Na-luciferin, 0.5 mM ATP, 0.25 mM lithium Co A and 0.5% v/v Triton X-100). […]

The values below come from US20180078576A1, “SULPHATED XYLANS FOR TREATMENT OR PROPHYLAXIS OF RESPIRATORY DISEASES” (Paradigm Biopharmaceuticals Limited, priority 2007, published 2018).

Sequence of recombinant human IL-2 (rhIL-2) (P60568 21-153): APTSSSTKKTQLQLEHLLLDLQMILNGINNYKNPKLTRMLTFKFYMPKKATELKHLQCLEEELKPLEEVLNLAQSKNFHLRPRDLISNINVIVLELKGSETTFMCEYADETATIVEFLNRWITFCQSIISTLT

In the case of Pentosan polysulfate [PPS], the “Effect on proliferation of CTL-Luc cells obtained with rhIL-2” value (10 μg/ml or 1 μg/ml, rhIL-2 1.25 ng/ml, FIG. 9) is given as “no effect”. The “Toxicity to cytokine dependent lymphocytic cell lines” value (IL-2 and GM-CSF responsive cell lines, 10 and 1 μg/ml) is reported as “not toxic”.
